Assay results as given in patent publication US20260272907A1, “Therapeutic Tyrosine Kinase Inhibitors for Multiple Sclerosis” (Principia Biopharma Inc., priority 2022, published 2026).

Assays:
[1] = tested on: patients with relapsing multiple sclerosis; assay: Long-term safety extension: paramagnetic rim lesions (PRL) count (MRI); type: in vivo, human
Protocol: In the current open-label extension Part B, all patients receive 60 mg/day. MRI outcomes include numbers of new Gd-enhancing and new/enlarging T2 lesions, T2 lesion volume change from baseline, slowly evolving lesions (SEL), and paramagnetic rim lesions (PRL).

CYP3A = assay: Preclinical drug metabolism studies: CYP3A; type: in vitro ADME
Description: See Table 12 for the list of drugs not to be used.

[2] = tested on: patients with relapsing multiple sclerosis; assay: Phase 2b dose-finding study: number of new Gd-enhancing T1-hyperintense lesions by brain MRI; conditions: for New Gd-enhancing T1-hyperintense lesion count, observed mean (SD): 12 weeks of treatment, Cohorts 1 and 2 pooled; for Patients with no new Gd-enhancing T1 lesions / Gd-enhancing T1 lesion count, mean (SD): Cohort 1 (all doses); for Gd+ lesion count, mean (SD): Cohort 1, 60 mg/day
Protocol: Cranial (brain) MRI with and without Gd contrast is performed. Basic MRIs are performed for all participants at all study sites and consist of T2- and T1-weighted sequences without and with Gd contrast.
New T1 Gd-enhancing hyperintense and new and enlarging T2 lesions are evaluated at each visit as per the SoA (Table 1), comparing lesion count to that from the previous MRI scan. Unless specified otherwise, the baseline brain MRI is used as the reference to assess all MRI-derived endpoints. The baseline MRI is the last MRI performed before the randomization visit. Standardized endpoint evaluation is assured by central review of brain MRI scans. Blinded central review is performed for all MRI-derived endpoints. Magnetic resonance imaging reviewers are blinded to treatment assignments and to other participant data.
The first step of this procedure tests for an efficacy signal (compared to the null hypothesis of a flat, no dose-response curve) in a procedure that controls the type 1 error. […] The second step is the Dose estimation of the dose-response curve, provided that an efficacy signal is established in the first step.
The 4-week post-randomization placebo data from Cohort 2 (i.e., Week 4 data from Cohort 2) is utilized as the placebo data at Week 12 in analysis, under the assumption of a constant rate of Gd-enhancing T1-hyperintense lesion formation if participants would be receiving placebo over 12 weeks. Participants in Cohort 2 contribute to the placebo data (at Week 4) as well as the data for 4 BTK inhibitor doses (at Week 16). […] If step 1 yields significant results, the best fitting model from the 6 predefined candidate models is chosen using the generalized Akaike information criterion (AIC).
The first step of this procedure tested for an efficacy signal (compared to the null hypothesis of a flat, no dose-response curve) in a procedure that controls the type 1 error.
The MRI assessments were excluded from the analyses if the participant was receiving systemic corticosteroids within the 30 days prior to the MRI assessment date. The 4-week post-randomization placebo data from Cohort 2 (i.e., Week 4 data from Cohort 2) was utilized as the placebo data at Week 12 in analysis under the assumption of a constant rate of Gd-enhancing T1-hyperintense lesion formation if participants were to receive placebo over 12 weeks. Participants in Cohort 2 contributed to the placebo data (at Week 4) as well as the data for 4 BTK inhibitor doses (at Week 16). The 4-week placebo run-out data from Cohort 1 was not included in the analysis. […] Test statistics and adjusted p-values were provided for all 6 candidate models.

[3] = 5 mg daily, after 12 weeks of treatment
[4] = 15 mg daily, after 12 weeks of treatment
[5] = 30 mg daily, after 12 weeks of treatment
[6] = 60 mg daily, after 12 weeks of treatment
[7] = after 4 weeks of placebo run-out

Question: For C=CC(=O)N1CCC[C@@H](n2c(=O)n(-c3ccc(Oc4ccccc4)cc3)c3c(N)nccc32)C1 [the BTK inhibitor, (R)-1-(1-acryloylpiperidin-3-yl)-4-amino-3-(4-phenoxyphenyl)-1H-imidazo[4,5-c]pyridin-2(3H)-one], which “Patients in whom PRL count remained unchanged” value ([1]; W96 vs baseline, all arms) is on record?
Answer: Its value is 18 patients.

Question: And the “Patients with 1 PRL at baseline but none at W96” value ([1]; all arms)?
Answer: Its value is 2 patients.

Question: And the “Patients with 1-3 additional PRL at W96 vs baseline” value ([1]; none in the 60/60 mg arm)?
Answer: Its value is 3 patients.

Question: What about the “Substrate of CYP3A isoenzyme” value (CYP3A) of the same compound?
Answer: Its value is “substrate”.

Question: And the “New Gd-enhancing T1-hyperintense lesion count, Mean” value [2, 3]?
Answer: Its value is 1.39.

Question: And the “New Gd-enhancing T1-hyperintense lesion count, Median” value [2, 3]?
Answer: Its value is 0.00.

Question: And the “New Gd-enhancing T1-hyperintense lesion count, observed mean (SD)” value ([2]; 5 mg once daily)?
Answer: Its value is 1.39 (3.20).

Question: And the “New Gd-enhancing T1-hyperintense lesion count, Mean” value [2, 4]?
Answer: Its value is 0.77.

Question: What about the “New Gd-enhancing T1-hyperintense lesion count, Median” value [2, 4] of the same compound?
Answer: Its value is 0.00.

Question: What about the “New Gd-enhancing T1-hyperintense lesion count, observed mean (SD)” value ([2]; 15 mg once daily) of the same compound?
Answer: Its value is 0.77 (1.48).

Question: What about the “New Gd-enhancing T1-hyperintense lesion count, Mean” value [2, 5] of the same compound?
Answer: The value was 0.76.

Question: What about the “New Gd-enhancing T1-hyperintense lesion count, Median” value [2, 5] of the same compound?
Answer: Its value is 0.00.

Question: What about the “New Gd-enhancing T1-hyperintense lesion count, observed mean (SD)” value ([2]; 30 mg once daily) of the same compound?
Answer: Its value is 0.76 (3.31).

Question: And the “New Gd-enhancing T1-hyperintense lesion count, Mean” value [2, 6]?
Answer: Its value is 0.13.

Question: And the “New Gd-enhancing T1-hyperintense lesion count, Median” value [2, 6]?
Answer: The value was 0.00.

Question: And the “Patients with >=3 new Gd-enhancing T1-hyperintense lesions” value [2, 6]?
Answer: Its value is 0 n.

Question: And the “New Gd-enhancing T1-hyperintense lesion count, observed mean (SD)” value ([2]; 60 mg once daily)?
Answer: Its value is 0.13 (0.43).

Question: What about the “Relative reduction in new Gd-enhancing T1-hyperintense lesions compared with placebo” value ([2]; 60 mg, 12 weeks, negative binomial regression model adjusted for baseline lesion activity, 95% CI [28.02%, 96.88%], nominal p=0.0178) of the same compound?
Answer: The value was 85.02%.

Question: And the “Participants with no new Gd-enhancing T1-hyperintense lesions” value ([2]; 60 mg, end of 12 weeks of treatment, 28 of 31 with evaluable MRI)?
Answer: Its value is 90.30%.

Question: And the “Dose-response for reduction in number of new active Gd-enhancing T1-hyperintense brain lesions” value ([2]; 5-60 mg once daily, after 12 weeks of treatment, MCP-Mod)?
Answer: The value was “dose-response relationship”.

Question: And the “Patients with no new Gd-enhancing T1 lesions” value ([2]; 4 weeks after discontinuing tolebrutinib (placebo run-out))?
Answer: The value was 85.2%.

Question: And the “Gd-enhancing T1 lesion count, mean (SD)” value [2, 7]?
Answer: Its value is 0.44 (1.70).

Question: What about the “Gd-enhancing T1 lesion count, mean (SD)” value ([2]; after 12 weeks of tolebrutinib) of the same compound?
Answer: Its value is 0.37 (0.99).

Question: What about the “Patients with no new Gd-enhancing T1 lesions” value ([2]; after 12 weeks of tolebrutinib treatment) of the same compound?
Answer: Its value is 83.3%.

Question: What about the “Gd+ lesion count, mean (SD)” value [2, 7] of the same compound?
Answer: The value was 0.31 (0.70).

Question: And the “Gd+ lesion count, mean (SD)” value ([2]; after 12 weeks of tolebrutinib)?
Answer: The value was 0.20 (0.56).
